Measurements reported in the supplement of paper PMC8671470.

Columns and labels:
Conditions in all cases: 72 h
HL-60 [1] = experiment: cell viability (% survival relative to DMSO control); higher = less cytotoxic
Summary of the method: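 HL-60 cells grown in RPMI 1640 with 10% FBS were rescreened against the full library in 384-well plates, in duplicate, at five tenfold concentrations from 1 to 10,000 nM, alongside DMSO or 100 nM of one of three metabolic inhibitors for 72 h at 37 °C, 5% CO2. Reference wells contained DMSO or 10 μM proteasome inhibitor. Viability was read with CellTiter-Glo and normalised to these reference wells, and where reported, area under the curve was taken from four-parameter log-logistic fits in drc and PharmacoGx.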

HEL = experiment: cell viability (% survival relative to DMSO control, bortezomib = 0%); higher = less cytotoxic
Summary of the method: (§1)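 Fifteen myeloid leukaemia cell lines (10 AML, 5 CML) were seeded at a density titrated to the linear growth range into 384-well plates pre-printed with compounds at 1, 10, 100, 1000 or 10000 nM in duplicate. Plates were incubated for 72 h at 37 °C with 5% CO2. Viability was then read by CellTiter-Glo luminescence. Each value is percent survival averaged over the duplicates, with vehicle set to 100% and a 10 µM positive control to 0%.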

MOLM-13 = experiment: as above
Summary of the method: as §1

KCL-22 = experiment: as above
Summary of the method: as §1

MV4-11 [2] = experiment: as above
Summary of the method: as §1

BV-173 = experiment: as above
Summary of the method: as §1

SHI-1 = experiment: as above
Summary of the method: as §1

THP-1 = experiment: as above
Summary of the method: as §1

ML-2 = experiment: as above
Summary of the method: as §1

LAMA-84 = experiment: as above
Summary of the method: as §1

KG-1 = experiment: as above
Summary of the method: as §1

HL-60 [3] = experiment: as above
Summary of the method: as §1

Mono-Mac-6 [4] = experiment: as above
Summary of the method: as §1

KU-812 [5] = experiment: as above
Summary of the method: as §1

NOMO-1 [6] = experiment: as above
Summary of the method: as §1

K-562 [7] = experiment: as above
Summary of the method: as §1

MV4-11 [8] = tested on: MV4-11
Summary of the method: (§2)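 The IC50 was read from log-logistic dose–response fits. Fifteen myeloid leukaemia lines were exposed for 72 h at 37 °C with 5% CO2 to five tenfold doses from 1 to 10,000 nM in duplicate. ATP luminescence, normalised to vehicle and to a 10 µM positive control, was fitted with four parameters.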

Mono-Mac-6 [9] = tested on: Mono-Mac-6
Summary of the method: as §2

KU-812 [10] = tested on: KU-812
Summary of the method: as §2

NOMO-1 [11] = tested on: NOMO-1
Summary of the method: as §2

K-562 [12] = tested on: K-562
Summary of the method: as §2

COC(=O)c1cc2c(C(F)(F)F)cc(-c3ccccc3)cc2n1O [NHI-2]
cell viability [%], HL-60 [1]
Conditions	0.001 µM	0.01 µM	0.1 µM	1 µM	10 µM
co-treatment: AZD3965 100 nM	101	90.5	103	107	109
co-treatment: DMSO vehicle	102	100	104	102	111
co-treatment: GSK2194069 100 nM	103	94.829	100	107.3	98.4
co-treatment: pictilisib 100 nM	96.9	92.8	103	99.3	97.3

cell viability [%]
Conditions	1 nM	10 nM	100 nM	1000 nM	10000 nM
BV-173	100	100	101	73.7	94.2
HEL	83.5	91.9	90.4	89.4	92.5
HL-60 [3]	98.5	90.3	95.2	97.2	96.8
K-562 [7]	98.8	91.1	93.8	87.4	85.4
KCL-22	91.9	88.8	104	110	92.7
KG-1	97.6	90.8	100	85.9	97.7
KU-812 [5]	97.6	96.9	97.7	96.8	84.3
LAMA-84	91.9	95	93.9	87.5	76.4
ML-2	94.8	95.1	109	102	107
MOLM-13	87	80.6	91.3	95.6	105
MV4-11 [2]	99.7	91.1	91.2	85.3	94.3
Mono-Mac-6 [4]	93.6	102	114	89.5	103
NOMO-1 [6]	101	102	92.2	97.4	102
SHI-1	96.6	104	97.3	93.6	96.9
THP-1	97.4	99.3	104	98.9	108

Conditions	IC50 (cell viability) [µM]
K-562 [12]	> 10
KU-812 [10]	> 10
MV4-11 [8]	> 10
Mono-Mac-6 [9]	> 10
NOMO-1 [11]	> 10

CCc1oc2ccccc2c1C(=O)c1cc(Br)c(O)c(Br)c1 [Benzbromarone]
cell viability [%], HL-60 [1]
Conditions	0.001 µM	0.01 µM	0.1 µM	1 µM	10 µM
co-treatment: AZD3965 100 nM	98.7	99.3	98.9	102	99.81
co-treatment: DMSO vehicle	101	99	101	103	101.1
co-treatment: GSK2194069 100 nM	95.9	104	105	102.3	97.85
co-treatment: pictilisib 100 nM	93.8	99.8	97.7	118	98

cell viability [%]
Conditions	1 nM	10 nM	100 nM	1000 nM	10000 nM
BV-173	106	94.1	117	95.9	127
HEL	92.3	101	101	89.8	122
HL-60 [3]	88.5	88.1	136	94.1	104
K-562 [7]	117	94.6	103	97.7	103
KCL-22	108	90.7	91.5	90.2	124
KG-1	95.7	97.7	102	94.1	102
KU-812 [5]	100	95.2	97.9	87.4	104
LAMA-84	103	98.7	96.3	96.1	107
ML-2	99.6	96.6	109	93.4	109
MOLM-13	101	101	91.3	90.8	136
MV4-11 [2]	107	100	97	91.2	118
Mono-Mac-6 [4]	102	95.3	106	102	126
NOMO-1 [6]	95.1	103	94.8	93.9	109
SHI-1	104	86	104	103	117
THP-1	105	95.7	112	101	86.3

Conditions	IC50 (cell viability) [µM]
K-562 [12]	> 10
KU-812 [10]	> 10
MV4-11 [8]	> 10
Mono-Mac-6 [9]	> 10
NOMO-1 [11]	> 10

Cc1c2c(=O)n(-c3ccccc3Cl)[nH]c2cc(=O)n1Cc1ccccn1
cell viability [%]
Conditions	1 nM	10 nM	100 nM	1000 nM	10000 nM
BV-173	98	104	94.6	95.5	81.4
HEL	77.9	114	88.2	103	106
HL-60 [3]	71	96.2	94.5	90.8	105
K-562 [7]	109	92.5	89.3	77.7	54
KCL-22	60.5	119	84.4	94.6	106
KG-1	92.4	105	89.6	102	104
KU-812 [5]	88	101	92	100	98.1
LAMA-84	93.8	108	100	99.9	99.9
ML-2	86.5	112	95.4	98.6	101
MOLM-13	84.7	101	96.7	71.4	38.5
MV4-11 [2]	101	107	89.7	71.9	59.2
Mono-Mac-6 [4]	89	109	96	103	99.5
NOMO-1 [6]	102	111	95.8	100	98.3
SHI-1	84.3	103	95.7	80.8	75.9
THP-1	95.8	113	99.1	94.2	96.6

Conditions	IC50 (cell viability) [µM]
K-562 [12]	6.52
KU-812 [10]	> 10
MV4-11 [8]	7.5
Mono-Mac-6 [9]	> 10
NOMO-1 [11]	> 10

O=C([O-])CC(O)(C(=O)[O-])C(O)C(=O)[O-].[K+].[K+].[K+] (stereo not given) [Hydroxycitrate]
cell viability [%], HL-60 [1]
Conditions	0.001 µM	0.01 µM	0.1 µM	1 µM	10 µM
co-treatment: AZD3965 100 nM	87.2	94.9	100	106.2	97.3
co-treatment: DMSO vehicle	97.7	97.98	103.8	87.7	92.4
co-treatment: GSK2194069 100 nM	101	99.09	103	95.3	98.1
co-treatment: pictilisib 100 nM	93.7	90.3	108	97.3	94.4

cell viability [%]
Conditions	1 nM	10 nM	100 nM	1000 nM	10000 nM
BV-173	80.2	95.7	89.1	104	105
HEL	79.6	98.2	112	95.1	99.6
HL-60 [3]	55.8	96.6	92.9	75.4	103
K-562 [7]	81.6	98.8	102	110	108
KCL-22	86.5	109	104	84.7	88
KG-1	80	94.5	93.6	102	91.5
KU-812 [5]	94.4	98.4	105	97.3	92.4
LAMA-84	93	95.9	115	93.8	96.4
ML-2	90.3	95.8	78.1	104	97
MOLM-13	68.9	104	99.4	89.5	92.5
MV4-11 [2]	81.4	107	111	106	90.2
Mono-Mac-6 [4]	87.8	86.8	98	90.6	99.5
NOMO-1 [6]	83.1	101	99.1	95.8	102
SHI-1	80.8	112	92	100	88.6
THP-1	83.8	93.4	97.5	97.7	105

Conditions	IC50 (cell viability) [µM]
K-562 [12]	> 10
KU-812 [10]	> 10
MV4-11 [8]	> 10
Mono-Mac-6 [9]	> 10
NOMO-1 [11]	> 10

c1cc(-c2cnn3cc(-c4ccc(OCCN5CCCCC5)cc4)cnc23)ccn1 [Dorsomorphin]
cell viability [%], HL-60 [1]
Conditions	0.001 µM	0.01 µM	0.1 µM	1 µM	10 µM
co-treatment: AZD3965 100 nM	101	101	99.7	99.9	56.2
co-treatment: DMSO vehicle	99.8	102	99.9	95.21	63.4
co-treatment: GSK2194069 100 nM	108	102	104	105	63.4
co-treatment: pictilisib 100 nM	93.5	99.7	94.8	82.3	34

cell viability [%]
Conditions	1 nM	10 nM	100 nM	1000 nM	10000 nM
BV-173	89.8	108	99.9	90.1	53.2
HEL	87.1	105	99.4	103	72.6
HL-60 [3]	113	110	94.9	97.1	93.9
K-562 [7]	94.2	97.4	93.3	92.1	93.5
KCL-22	108	106	102	94.6	37.7
KG-1	94.4	117	98.8	99.8	50.8
KU-812 [5]	91.9	97.1	97.2	85.9	1.77
LAMA-84	96.4	98.8	96.5	96.1	28.8
ML-2	95.2	113	96.7	88.3	44.1
MOLM-13	77.6	78.5	97.5	108	97.8
MV4-11 [2]	89.9	117	97.4	99.8	89.1
Mono-Mac-6 [4]	95.3	101	103	42.8	6.23
NOMO-1 [6]	93.2	105	98.8	92.7	48.5
SHI-1	104	102	95.6	103	113
THP-1	94.5	101	101	96.2	55.6

Conditions	IC50 (cell viability) [µM]
K-562 [12]	> 10
KU-812 [10]	2.6
MV4-11 [8]	> 10
Mono-Mac-6 [9]	0.811
NOMO-1 [11]	6.43
